According to PubChem BioAssay (NCI):
“And” between values parts separate entries of the source, which are not always exact repeats. Equal values may be shown once.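 Exposure lasted 48 hours, with cells grown in 96-well plates and compounds tested at five concentrations. GI50 is the concentration that inhibits growth by half. The concentration for full growth arrest is given as TGI.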

Key:
Test in all cases: NCI-60 cell line screen, 48 h
[1] = tested on: RPMI-8226 leukemia
[2] = tested on: SF-295 CNS
[3] = tested on: HOP-62 NSCLC
[4] = tested on: SK-MEL-5 melanoma
[5] = tested on: M14 melanoma
[6] = tested on: U251 CNS
[7] = tested on: MDA-N
[8] = tested on: NCI-H23 lung
[9] = tested on: HCT-15 colon
[10] = tested on: DU-145 prostate
[11] = tested on: HCC-2998 colon

SMILES: O=c1oc2ccccc2n1CCN1CCCCC1
- TGI [1]: > 100 µM
- TGI [2]: > 100 µM
- TGI [3]: > 100 µM
- TGI [4]: > 100 µM
- TGI [5]: > 100 µM
- TGI [6]: > 100 µM
- TGI [7]: > 100 µM
- TGI [8]: > 100 µM
- TGI [9]: > 100 µM
- TGI [10]: > 100 µM

SMILES: O=C(CSCC(=O)N/N=C\c1ccc(-c2ccccc2)cc1)N/N=C\c1ccc(-c2ccccc2)cc1
- TGI [2]: 40.9 µM
- TGI [3]: 51.9 µM
- TGI [4]: > 100 µM
- TGI [5]: 91.2 µM
- TGI [6]: 31.5 µM
- TGI [8]: 35.4 µM
- TGI [9]: > 100 µM
- TGI [10]: > 100 µM

SMILES: c1ccc(CSc2nc(N3CCOCC3)c3cn[nH]c3n2)cc1
- TGI [1]: 35.2 µM
- TGI [2]: 78 µM
- TGI [3]: > 100 µM
- TGI [4]: 30.9 µM
- TGI [5]: 49 µM
- TGI [6]: 63.2 µM
- TGI [8]: > 100 µM
- TGI [11]: 69.2 µM
- TGI [9]: > 100 µM
- TGI [10]: > 100 µM

SMILES: Cc1cccc(NC(=S)Nc2ccccc2Cl)n1
- TGI [1]: > 100 µM
- TGI [2]: > 100 µM
- TGI [3]: 46.2 µM
- TGI [4]: > 100 µM
- TGI [5]: > 100 µM
- TGI [6]: > 100 µM
- TGI [7]: > 100 µM
- TGI [9]: > 100 µM
- TGI [10]: > 100 µM

SMILES: O=c1[nH]nc(Cc2ccccc2)n1Nc1ccccc1
- TGI [1]: > 100 µM
- TGI [2]: > 100 µM
- TGI [3]: > 100 µM
- TGI [4]: > 100 µM
- TGI [6]: > 100 µM
- TGI [7]: > 100 µM
- TGI [8]: > 100 µM
- TGI [11]: > 100 µM
- TGI [9]: > 100 µM
- TGI [10]: > 100 µM

SMILES: COC(=O)c1c(C)cccc1CC1Cc2c(C)cccc2C1=O (stereo not given)
- TGI [2]: > 100 µM
- TGI [3]: > 100 µM
- TGI [4]: 37.5 µM
- TGI [5]: > 100 µM
- TGI [6]: > 100 µM
- TGI [7]: > 100 µM
- TGI [8]: 99.5 µM
- TGI [11]: > 100 µM
- TGI [9]: > 100 µM
- TGI [10]: > 100 µM

SMILES: CC(=O)OCC1=C(C)C(OC(=O)C(OC(C)=O)[C@@H](NC(=O)c2ccccc2)c2ccccc2)CCC1(C)C (stereo not given in full)
- TGI [1]: > 100 µM
- TGI [2]: > 100 µM
- TGI [3]: > 100 µM
- TGI [4]: > 100 µM
- TGI [6]: > 100 µM
- TGI [7]: > 100 µM
- TGI [8]: > 100 µM
- TGI [11]: > 100 µM
- TGI [9]: > 100 µM
- TGI [10]: > 100 µM

SMILES: O=C(CSC(=S)N1CCOCC1)Nc1nc2c(s1)CCCC2
- TGI [1]: > 100 µM
- TGI [2]: > 100 µM
- TGI [3]: > 100 µM
- TGI [4]: > 100 µM
- TGI [5]: > 100 µM
- TGI [6]: > 100 µM
- TGI [8]: > 100 µM
- TGI [11]: 61.2 µM
- TGI [9]: > 100 µM

SMILES: CC(C)CCn1c(=O)c2c(=O)[nH][nH]c2c2ccccc21
- TGI [1]: > 100 µM
- TGI [2]: > 100 µM
- TGI [3]: > 100 µM
- TGI [4]: > 100 µM
- TGI [6]: > 100 µM
- TGI [7]: > 100 µM
- TGI [8]: > 100 µM
- TGI [11]: > 100 µM
- TGI [9]: > 100 µM
- TGI [10]: > 100 µM

SMILES: CN1CN(c2ccccc2)C2(CCN(CCc3csc4ccccc34)CC2)C1=O
- TGI [1]: 37.4 µM
- TGI [3]: 26.4 µM
- TGI [4]: 33.3 µM
- TGI [5]: 38.4 µM
- TGI [6]: 29.8 µM
- TGI [8]: 42.5 µM
- TGI [9]: 51.5 µM
- TGI [10]: 54.2 µM

SMILES: CCC1C(c2cc(OC)c(OC)c(OC)c2)c2cc3c(cc2OC1N1CCOCC1)OCO3 (stereo not given)
- TGI [2]: 8.52 µM
- TGI [3]: 20.6 µM
- TGI [4]: 6.38 µM
- TGI [5]: 23.7 µM
- TGI [7]: 3.83 µM
- TGI [9]: > 100 µM
- TGI [10]: 28.9 µM

SMILES: COc1cc2c(c(OC)c1OC)-c1ccc(SC)cc1[C@H](OC(=O)c1ccccc1)CC2
- TGI [2]: > 100 µM
- TGI [3]: > 100 µM
- TGI [4]: 1.21 µM
- TGI [7]: 0.0222 µM
- TGI [8]: > 100 µM
- TGI [11]: 11.7 µM
- TGI [9]: > 40.6 µM
- TGI [10]: > 61 µM

SMILES: CC1(C)CC(=O)c2c(nc3ccc4ccccc4c3c2-c2ccc(NC(=O)CCC(=O)Nc3ccc(-c4c5c(nc6ccc7ccccc7c46)CC(C)(C)CC5=O)cc3)cc2)C1
- TGI [1]: > 100 µM
- TGI [2]: > 100 µM
- TGI [3]: > 100 µM
- TGI [4]: > 100 µM
- TGI [5]: > 100 µM
- TGI [6]: > 100 µM
- TGI [7]: > 100 µM
- TGI [10]: > 100 µM

SMILES: CC(C)=CCSC1CC2C(CC1(C)O)C2(C)C (stereo not given)
- TGI [1]: 48.5 µM and 61.6 µM
- TGI [2]: 55.9 µM and 35.2 µM
- TGI [3]: 31.8 µM and 31.2 µM
- GI50 [4]: 14.7 µM and 6.59 µM
- TGI [4]: 28.5 µM and 20.1 µM
- TGI [5]: 32 µM and 27.9 µM
- TGI [6]: 28.5 µM and 27.1 µM
- TGI [8]: 29.8 µM and 25 µM
- TGI [11]: 3.27 µM and 18.6 µM
- TGI [9]: 31.4 µM and 29.6 µM

SMILES: CC(=O)Nc1ccc2[nH]c(-c3cccc(F)c3)cc(=O)c2c1
- TGI [1]: > 59.8 µM
- TGI [2]: > 77.2 µM
- TGI [3]: > 48.4 µM
- TGI [4]: 27.8 µM
- TGI [5]: > 100 µM
- TGI [6]: 16.3 µM
- TGI [7]: > 25.4 µM
- TGI [8]: > 56.8 µM
- TGI [11]: 23 µM
- TGI [9]: > 100 µM

SMILES: CC(=O)NC1=C(C)C(=O)c2c(nc3n2CCC3O)C1=N (stereo not given)
- TGI [1]: > 100 µM
- TGI [2]: 38 µM
- TGI [3]: > 100 µM
- TGI [4]: 26.2 µM
- TGI [6]: 26.9 µM
- TGI [8]: 29.7 µM
- TGI [11]: 45.7 µM
- TGI [9]: 41.1 µM
